{"source": "patent US10674699B2", "about": "“Endophyte enhanced seedlings with increased pest tolerance” (priority 2006, dated 2020)", "origin": "cited, not measured here", "system": "spruce budworm cells", "details": "Can J Chem 81: 284; cited from earlier work", "data": [{"substance": "trihydroxy-4-1′-hydroxyethyl) isocoumarin", "values": [{"measurement": "toxicity to spruce budworm cells", "value": "^camong others; a new compound trihydroxy-4-1′-hydroxyethyl) isocoumarin also toxic to spruce budworm cells (Can J Chem 81: 284)"}]}]}
